Experiments:
[1] = tested on: Human corneal epithelial cells (hCEC); assay: BrdU cell proliferation ELISA; format: cell-based
Method: (§1) Proliferation of hCEC was determined using a 5-bromo-2'-deoxyuridine (BrdU) ELISA in accordance with the manufacturers' recommendations (Merck KGaA, Darmstadt, Germany). In brief, approximately 7,000 cells were seeded onto a 96-well cell culture plate and incubated for 24h to achieve complete adherence of the cells. After 24 hours of incubation with 100 µl of corneal epithelial cell growth medium without its' supplement mix, hCECs were treated with eriocitrin and/or SCH772984 (Selleckchem, Houston, TX, USA), an inhibitor of ERK1/2 phosphorylation, both dissolved in DMSO. Following another 24 hours of incubation with BrdU labeling solution, cells were fixed and incubated with anti-BrdU antibodies according to the manufacturer's recommendations. BrdU incorporation into the DNA of hCECs was quantified by absorbance measurement at 450 nm.

[2] = WST-1 cell viability assay; format: cell-based, Human; conditions: human, corneal epithelial cells, 0.5 µM, DMSO control = 100 ± 12%, mean ± SD
Method: (§2) Human corneal epithelial cells (hCEC; SCCE016; Merck Millipore, Burlington, MA, USA) were cultured in corneal epithelial cell growth medium with supplement mix (LGC Standards, Teddington, United Kingdom). Approximately 10,000 hCECs were seeded onto each well of a 96-well cell-culture dishes (NUNC, Langenselbold, Germany). After 24 hours of incubation with 100 µl of corneal epithelial cell growth medium without its' supplement mix (LGC Standards, Teddington, United Kingdom), hCECs were treated with different concentrations of eriocitrin (EC; Selleckchem, Houston, TX, USA) dissolved in dimethyl sulfoxide (DMSO; Carl Roth AG, Karlsruhe, Germany). Control groups were treated with DMSO only. Following another 72 hours of incubation, the cells were incubated with the water-soluble tetrazolium salt (WST-1; Hoffmann-La Roche AG, Basel, Switzerland) solution for 30 minutes. Substrate turnover was measured with an ELISA reader at 450 nm (Spectramax 190; Molecular Devices, Sunnyvale, CA, USA) and a reference at 690 nm.

[3] = tested on: Human corneal epithelial cells (hCEC); assay: WST-1 cell viability assay; format: cell-based; conditions: any of the concentrations tested, 72 hours, compared to DMSO control; Fig. 1A
Method: as §2

[4] = tested on: ERK1/2; assay: Western blot of ERK1/2 phosphorylation in corneal epithelial cells; format: cell-based; conditions: Homo sapiens, Corneal epithelial cell, 1 hour, compared to DMSO-only control, Fig. 4, read-out: pERK1/2 protein expression
Method: To analyze whether eriocitrin activates the extracellular signal-regulated kinase-1 and -2 (ERK1/2), human corneal epithelial cells were treated with 10 µM eriocitrin for 1 hour. Corneal proteins were isolated in radioimmunoprecipitation assay (RIPA) buffer. Protein concentration was measured with a bicinchoninic acid (BCA) assay according to the manufacturer's instructions (Thermo Fisher Scientific, Waltham, MA, USA). Up to 25 µg of total proteins were subjected to 8% SDS-PAGE. Following gel electrophoresis proteins were transferred onto a polyvinylidine fluoride (PVDF) membrane (Roche Holding, Basel, Switzerland) by semidry blotting. After blocking with 3% low fat milk in PBS-Tween (PBS-T) for one hour, membranes were incubated overnight with a rabbit-anti-pERK1/2 (1:1000; Cell Signaling Technology, Danvers, MA, USA) in PBS-T with 0.3% low fat milk. Alkaliphosphatase-conjugated mouse-anti-rabbit antibodies (1:1000, Jackson Immunoresearch Europe, UK) were used as secondary antibodies. Antibody hybridization was visualized using the CDP-Star substrate (Thermo Fisher) and documented with the Western Blot Reader iBright CL 1000 (Thermo Fisher). As a loading control, AP-conjugated anti-alpha-tubulin antibodies were used (1:1000, Merck). The densitometry of Western blot analyses was performed with the iBright Image software v.1.4.0 software (Thermo Fisher).

[5] = tested on: Human corneal epithelial cells (hCEC); assay: Oxidative stress model (H2O2) with BrdU proliferation assay; format: cell-based; conditions: 24 h, Fig. 3, read-out: cell proliferation
Method: as §1
To determine potential anti-oxidative effects of eriocitrin, hCECs were incubated and treated analogous to the above-mentioned BrdU ELISA with minor modifications. To induce oxidative stress, hydrogen peroxide (H2O2) in a concentration of 100 µM was added to the treatment groups and an additional H2O2-only group was tested. Following another incubation of the hCECs for 24 hours, the BrdU assay was further performed according to the description above.

[6] = 80°C for 30 min, pH 7; cited from earlier work
[7] = tested on: Human corneal epithelial cells (hCEC); assay: Cell scratch (wound healing / migration) assay in vitro; format: cell-based; conditions: 10 µM, Fig. 2
Method: To analyze hCEC migration in vitro, cells were cultured in corneal epithelial cell growth medium with supplement mix until confluence of the cells of a 6-well cell culture plate. Following an incubation period of 24 hours in cell culture medium without supplements, 5 linear scratches were performed in each well using a 200 µl pipette tip (Eppendorf AG, Hamburg, Germany). The hCECs were then incubated prospectively under treatment with eriocitrin or DMSO as a control for up to 48 hours. Reference images were acquired at the beginning of the incubation period using the phase contrast mode on an Axio Observer 7 (Carl Zeiss AG, Jena, Germany). Every 24 hours, follow-up images of different scratch sections were acquired. The size of the wound area was analyzed using a semi-automated analysis tool in ImageJ 1.53a (National Institute of Health, Bethesda, MD, USA).

[8] = 'it is believed'; basis not stated; cited from earlier work

**Q.** With `O=C(Nc1ccc2[nH]nc(-c3ccncc3)c2c1)[C@@H]1CCN(CC(=O)N2CCN(c3ccc(-c4ncccn4)cc3)CC2)C1` [SCH772984, reference compound] as the compound, how does the “effect on eriocitrin-enhanced proliferation of corneal epithelial cells” value ([1]; 100 nM added to 10 µM eriocitrin, 24 hours, Fig. 5) read?
**A.** completely blocked

**Q.** With `C[C@@H]1O[C@@H](OC[C@H]2O[C@@H](Oc3cc(O)c4c(c3)O[C@H](c3ccc(O)c(O)c3)CC4=O)[C@H](O)[C@@H](O)[C@@H]2O)[C@H](O)[C@H](O)[C@H]1O` [eriocitrin, (2S)-3',4',5-trihydroxy-7-[α-L-rhamnopyranosyl-(1→6)-β-D-glucopyranosyloxy]flavan-4-one] as the compound, how does the viability at 72 h, 0.5 µM [2] read?
**A.** 110 ± 14%

**Q.** What about the “toxic effects on corneal epithelial cell viability” value [3] of the same compound?
**A.** did not show any toxic effects

**Q.** What about the fold induction at 10 µM [4] of the same compound?
**A.** 1.8 ± 0.9

**Q.** And the activity at 5 µM ([5]; 5 µM added to 100 µM H2O2, 24 hours, H2O2 control 81 ± 12%)?
**A.** 113 ± 9%

**Q.** What about the activity at 5 µM ([5]; 5 µM, 24 hours, without H2O2, compared to DMSO control) of the same compound?
**A.** 117 ± 8%

**Q.** And the activity at 10 µM ([5]; 10 µM added to 100 µM H2O2, 24 hours, H2O2 control 81 ± 12%)?
**A.** 115 ± 18%

**Q.** And the activity at 10 µM ([5]; 10 µM, 24 hours, without H2O2, compared to DMSO control)?
**A.** 125 ± 18%

**Q.** And the “eriocitrin molecules remain intact” value [6]?
**A.** 60%

**Q.** What about the “scratched hCEC area, difference to DMSO-only control” value ([7]; 24 hours of incubation, p > 0.9999) of the same compound?
**A.** slight difference

**Q.** What about the remaining wound area ([7]; 48 hours of incubation, control 71.9 ± 7.7%) of the same compound?
**A.** 64.5 ± 7.8%

**Q.** And the proliferation ([1]; 10 µM eriocitrin plus 100 nM SCH772984, 24 hours, Fig. 5)?
**A.** 104 ± 9%

**Q.** And the proliferation ([1]; 10 µM, 24 hours, compared to DMSO treated controls, Fig. 5)?
**A.** 129 ± 11%

**Q.** And the activity at 0.5 µM ([1]; Homo sapiens, HCEC, 0.5 µM, 24 hours, DMSO control = 100 ± 17%, Fig. 1B)?
**A.** 118 ± 39%

**Q.** And the activity at 1 µM ([1]; Homo sapiens, HCEC, 1 µM, 24 hours, DMSO control = 100 ± 17%, Fig. 1B)?
**A.** 126 ± 33%

**Q.** And the activity at 2.5 µM ([1]; Homo sapiens, HCEC, 2.5 µM, 24 hours, DMSO control = 100 ± 17%, Fig. 1B)?
**A.** 127 ± 29%

**Q.** And the activity at 5 µM ([1]; Homo sapiens, HCEC, 5 µM, 24 hours, DMSO control = 100 ± 17%, Fig. 1B)?
**A.** 143 ± 36%

**Q.** What about the activity at 10 µM ([1]; Homo sapiens, HCEC, 10 µM, 24 hours, DMSO control = 100 ± 17%, Fig. 1B) of the same compound?
**A.** 162 ± 49%

**Q.** For `COc1cc(O)c(CC=C(C)C)c(O)c1C(=O)/C=C/c1ccc(O)cc1` [xanthohumol, 1-[2,4-Dihydroxy-6-methoxy-3-(3-methyl-but-2-enyl)-phenyl]-3-(4-hydroxyphenyl)-propenon], which first pka [8] is on record?
**A.** about 7

From patent EP4302767A1, “OPHTHALMIC COMPOSITION COMPRISING ERIOCITRIN” (Skeye Pharma GmbH, priority 2022, dated 2024)
